According to patent US9072729B2, “Method for treating fibrosis and cancer with imidazolium and imidazolinium compounds” (Agency for Science, Technology and Research, priority 2008, dated 2015):

Experiments:
Assay type in all cases: cell-based, rat
HSC-T6 cells = assay: Cellular ROS determination (DCF labeling); settings: 48 h
Protocol: FIG. 2. (a) DBZIM and (b) TDBZIM attenuated cellular ROS level. HSC T6 cells were incubated with DBZIM (10, 50, 100 and 300 μM), TDBZIM (10, 50 and 100 μM), NAC (1 mM) and EGCG (25 μM) for 48 h before assaying for cellular ROS levels. The data were presented as relative values after normalizing against a vehicle control. The data were presented as mean and SEM, N=6, *^bP<0.01, *^cP<0.005, and *^dP<0.0005 when compared to the vehicle, control.
The ROS level of treated HSC-T6 cells was determined using the dichlorofluorescein (DCF) labeling method (Molecular Probes Inc., OR, USA). Cultured cells were harvested by trypsinization, and resuspended in phenol red-free DMEM (Invitrogen). Cells were then incubated with 10 μg/ml of 2′,7′-dichloro-fluorescein diacetate (DCFH-DA) in DMEM for 15 min before resuspension in DMEM for assaying. Cell solution was dispensed into a black-wall 96-well pate in triplicate for fluorescence readout at Ex=485 nm and Em=530 nm with a Tecan Safire II plate reader. The fluorescence unit was normalized against viable cell numbers, which were determined using 3-(4,5-dimethylthiazol-2-yl)-2,5-diphenyl tetrazolium bromide (MTT assay, Promega, Wis., USA). Cellular ROS level was expressed relative to the control sample.

GFAP = assay: Real-time RT-PCR of GFAP mRNA in HSC T6 cells
Protocol: (§1) FIG. 6. (a) DBZIM and (b) TDBZIM suppressed the mRNA expression of HSC activation markers (GFAP and SMAA) and fibrotic endpoints (col1a1 and fibronectin) in a dosage-dependent manner. […] The ΔΔCt method was used for relative quantification with vehicle control sample being the calibrator. The data were presented as mean and SEM, N=6, *^aP<0.05, *^bP<0.01, *^cP<0.005, and *^dP<0.0005, when compared to the vehicle control. FIG. 7. DBZIM (100 μM) and TDBZIM (100 μM) suppressed (a) GFAP, (b) SMAA, (c) col1a1 and (d) fibronectin mRNA expression in a time-dependent manner. HSC T6 cells were treated with DBZIM and TDBZIM, and assayed after 8, 24 and 48 h. […] FIG. 14. […] (50 μM), […] (50 μM), […] (10 μM) and DBZBIM (100 μM) were dissolved in DMSO with a final DMSO concentration of 0.2% (v/v). DPIM (2 mM), EGCG (25 μM) and DBZIM (100 μM) were dissolved in H2O. β-actin was used as the normalization gene; its expression was constant under the experimental conditions. Relative quantification was normalized against the respective vehicle control. The data were presented as mean and SEM, N=6, *^aP<0.05, *^cP<0.005, and *^dP<0.0005, when compared to the vehicle control. Total RNA was isolated using NucleoSpin RNAII isolation kit ([…], Germany), and quantified by ND-100 spectrophotometer (Nanodrop Technologies, DE, USA). The details of real-time RT-PCR were reported elsewhere (Zhang et al. 2006). Briefly, it was a two-step real-time RT-PCR using Taqman chemistry. Total RNA was first reverse transcribed to cDNA, and real-time PCR was run and detected in ABI 7500 Fast Real-Time PCR System (Applied Biosystems, CA, USA). Primers and probes for rat GFAP, SMAA, collagen Ia1, fibronectin, TGF-β1, TGF-β receptor I (TGFβ RI) and IL-6 were ordered from Taqman's assay-on-demand database. Rat β-actin was used as normalization gene, and its expression level was constant (CT difference was <±0.5) throughout the experimental settings in this study. Relative quantification of target mRNA was calculated using comparative threshold cycle method (ΔΔCT) as described in User Bulletin #2 (ABI Prism 7700 Sequence Detection System). Relative quantification was given by 2^-ΔΔCT to express the up-regulation or down regulation of the target gene under the treatments compared to the control.

SMAA = assay: Real-time RT-PCR of SMAA mRNA in HSC T6 cells; settings: for change of SMAA mRNA: 8 h
Protocol: as §1

col1a1 = assay: Real-time RT-PCR of col1a1 mRNA in HSC T6 cells
Protocol: as §1

fibronectin = assay: Real-time RT-PCR of fibronectin mRNA in HSC T6 cells; settings: for suppression of fibronectin mRNA: DPIM 2 mM, TMPHIM 50 μM, DBZIM 100 μM
Protocol: as §1

GST = assay: Glutathione S-transferase (GST) assay in treated cells; settings: for enhancement of GST activity: 48 h
Protocol: FIG. 4. Effect of DBZIM and TDBZIM on GPx, CAT, SOD and GST. DBZIM affected (a) GPx activity and (c) CAT activity in a dosage-dependent manner. TDBZIM suppressed (b) GPx activity and (d) CAT activity. (e) DBZIM and (f) TDBZIM had little effect on SOD activity. (g) DBZIM induced GST activity. HSC T6 cells were treated with compounds of various concentrations for 48 h, and homogenized by sonication (60% frequency for 30 s) in PBS (pH 7.4, 1 mM of EDTA) for GPx, GST and CAT assays, or in 20 mM of HEPES buffer containing 1 mM of EGTA, 210 mM of mannitol and 70 mM of sucrose (pH 7.2) for SOD assay. Enzyme activity was normalized against total protein. DBZIM was dissolved in DMSO, and TDBZIM was dissolved in H2O. The data were presented as mean and SEM, N=6, *^aP<0.05, *^bP<0.01, *^cP<0.005, and *^dP<0.0005, when compared to the vehicle control.
The activity of phase II anti-oxidant enzyme, GST, was assayed using a kit from Cayman Chemical. Protein samples were harvested in PBS buffer containing 1 mM of EDTA, and the protein concentration was determined by BCA assay. Total GST (cytosolic and microsomal) activity was assayed by measuring the conjugation of 1-chloro-2,4-dinitobenzene (CDNB) with reduced GSH, and monitored by an increase in absorbance at 340 nm. GST activity was expressed as nmol/min/mg protein.

## 1,3,5-tris(4-methyl-imidazolium)-linked cyclophane.3Br [TDBZIM]
HSC-T6 cells; 10 μM
  suppression of cellular ROS level: 19%
HSC-T6 cells; 100 μM
  suppression of cellular ROS level: 36%
GFAP; 1 μM, 48 h
  decrease of GFAP mRNA: 32%
GFAP; 10 μM, 48 h
  decrease of GFAP mRNA: 20%
GFAP; 100 μM, 8 h
  decrease of GFAP mRNA: 30%
GFAP; 100 μM, 24 h
  decrease of GFAP mRNA: 36%
GFAP; 100 μM, 48 h
  decrease of GFAP mRNA: 60%
SMAA; 1 μM, 48 h
  decrease of SMAA mRNA: 27%
SMAA; 100 μM
  change of SMAA mRNA: no change
SMAA; 100 μM, 24 h
  transient induction of SMAA mRNA: up to 79%
col1a1; 1 μM, 48 h
  decrease of col1a1 mRNA: 39%
col1a1; 10 μM, 48 h
  decrease of col1a1 mRNA: 36%
col1a1; 100 μM, 8 h
  decrease of col1a1 mRNA: 22%
col1a1; 100 μM, 24 h
  decrease of col1a1 mRNA: 40%
col1a1; 100 μM, 48 h
  decrease of col1a1 mRNA: 53%
fibronectin; 1 μM, 48 h
  decrease of fibronectin mRNA: 32%
fibronectin; 10 μM, 48 h
  decrease of fibronectin mRNA: 28%
fibronectin; 100 μM, 8 h
  decrease of fibronectin mRNA: 25%
fibronectin; 100 μM, 24 h
  decrease of fibronectin mRNA: 29%
fibronectin; 100 μM, 48 h
  decrease of fibronectin mRNA: 43%

## (−)-Epigallocatechin gallate [EGCG, reference compound]
HSC-T6 cells; EGCG 25 μM, NAC 1 mM
  attenuation of cellular ROS level (references): 14%
GST; EGCG, NAC
  effect on GST activity (references): did not have much affect
GFAP; EGCG 25 μM, 48 h
  inhibition on HSC activation and fibrosis (GFAP, SMAA, fibronectin, col1a1 mRNA): did not show significant inhibition

## CC(C)n1cc[n+](C(C)C)c1.F[B-](F)(F)F [DPIM, 1,3-diisopropylimidazolium tetrafluoroborate]
GFAP; 48 h, DPIM 2 mM, AMIM 50 μM, TMPHIM 50 μM, DBZBIM 100 μM
  suppression of GFAP mRNA: 78%
SMAA; 48 h, DBIM 1 mM, DPIM 2 mM, AMIM 50 μM, TMPHIM 50 μM
  suppression of SMAA mRNA: 78%
col1a1; 48 h, DBIM 1 mM, DPIM 2 mM, TMPHIM 50 μM, DPPHIM 10 μM
  suppression of col1a1 mRNA: 61%
fibronectin; 48 h
  suppression of fibronectin mRNA: 48%

## [Br-].c1ccc(Cn2cc[n+](Cc3ccccc3)c2)cc1 [DBZIM, 1,3-bisbenzylimidazolium bromide]
HSC-T6 cells; 50 μM
  suppression of cellular ROS level: 25%
HSC-T6 cells; 300 μM
  suppression of cellular ROS level: 34%
GST; 100 μM
  enhancement of GST activity: 22%
GST; 300 μM
  enhancement of GST activity: 32%
GFAP; 10 μM, 48 h
  decrease of GFAP mRNA: 18%
GFAP; 100 μM, 8 h
  decrease of GFAP mRNA: 28%
GFAP; 100 μM, 24 h
  decrease of GFAP mRNA: 40%
GFAP; 100 μM, 48 h
  decrease of GFAP mRNA: 56%
GFAP; 300 μM, 48 h
  decrease of GFAP mRNA: 86%
SMAA; 100 μM
  change of SMAA mRNA: no change
SMAA; 100 μM, 48 h
  decrease of SMAA mRNA: 21%
SMAA; 300 μM, 48 h
  decrease of SMAA mRNA: 58%
col1a1; 100 μM, 8 h
  decrease of col1a1 mRNA: 22%
col1a1; 100 μM, 24 h
  decrease of col1a1 mRNA: 29%
col1a1; 100 μM, 48 h
  decrease of col1a1 mRNA: 21%
col1a1; 300 μM, 48 h
  decrease of col1a1 mRNA: 44%
fibronectin; 1 μM, 48 h
  decrease of fibronectin mRNA: 19%
fibronectin; 100 μM, 8 h
  decrease of fibronectin mRNA: 15%
fibronectin; 100 μM, 24 h
  decrease of fibronectin mRNA: 17%
fibronectin; 100 μM, 48 h
  decrease of fibronectin mRNA: 25%
fibronectin; 300 μM, 48 h
  decrease of fibronectin mRNA: 40%
fibronectin; 48 h
  suppression of fibronectin mRNA: 26%
